The values that follow come from US20110178016A1, “PULSE PARATHYROID HORMONE FOR TREATMENT OF THE HEM[…], STROMAL CELL LOSS, AND VASCULAR INJURY RESULTING FROM ACUTE EXPOSURE TO LETHAL RADIATION” (priority 2008, published 2011).

In data set [1] the test system is bone marrow colony forming units / hematopoietic stem cells. In words: Bone marrow colony forming units and hematopoietic stem cell content in irradiated mice. It counts as in vivo, B6 mice. The settings on record: 772 cGy. The method, then:
In a second experiment, a sub-group of animals were euthanized on day 7, n=3 per cohort. Bone marrows were flushed and CFUs were performed.
B6 mice underwent 772 cGy irradiation and a daily total dose of 400 mcg/kg/day of PTH.
One group of animals was euthanized on day 3 (n=3) one group on day 7 (n=4) and one group (n=3) on day 28.
Bone marrow was analyzed for colony forming units (CFU) (FIGS. 9A and 9B), hematopoietic stem cell content. Serum was analyzed for PTH levels on the final day of the study to determine the duration of detectable PTH in the serum following the final dose.
Mice underwent exposure to 772 cGy radiation and were randomized to treatment of daily PTH 400 mcg/kg or saline. On days 3 (n=3) and 7 (n=4) bone marrow was analyzed for colony forming units.
Following irradiation with 772 cGy, mice underwent bone marrow analysis on days 3 (n=3) or 7 (n=4) for hematopoietic stem cell content. […] (FIG. 11)

The nature of data set [2]: PTH levels after subcutaneous administration in transplanted monkeys. It counts as in vivo, nonhuman primates (monkeys). Particulars: 5 micrograms/kg subcutaneously. An excerpt: Bone marrow transplant studies by Calvi and colleagues characterized this process in the syngeneic mouse model of osteoblastic activation. To see if PTH could enhance allogeneic stem cell engraftment in nonhuman primates (monkeys), donors were MHC mismatched based on recipient proliferation against donor cells in the mixed lymphocyte culture and by disparity at the class I antigen, Bw6. This disparity permitted tracking of Bw6+ donor cells following transplantation into Bw6-recipients. Eight control recipients were conditioned with thymoglobulin, rituxan, fludarabine, and melphalan. Six animals received the conditioning regimen supplemented with parathyroid hormone beginning on the first day of the conditioning regimen and administered daily at a dose of 5 micrograms/kg subcutaneously. An allogeneic stem cell transplant consisting of 2−4×10^6 CD34+cells/kg was administered on day 0. Outcome measures included PTH levels, CBCs, and donor engraftment via flow cytometry.

The subject of data set [3] is bone marrow colony forming units / CD34+ hematopoietic stem cells. The data set is described as follows: Bone marrow CFU and CD34+ cells in non-irradiated monkeys 24 hours after first PTH dose. The settings on record: non-irradiated CYNOs. It counts as in vivo, cynomolgus monkeys. As to the method: Two cynomolgus monkeys (hereafter referred to as CYNOs) were treated with a 21 day course of daily subcutaneous PTH at either 100 mcg/kg (monkey 7801) or 50 mcg/kg (monkey 7872). Hematopoietic outcome measures included:
(a) bone marrow analysis for colony forming units 24 hours after first dose of PTH;
(b) bone marrow analysis for CD34+ hematopoietic stem cells 24 hours after first dose of PTH;

The subject of another data set is rat. Particulars: prolonged daily dosing, 4 months-2 years; cited from earlier work.

Entries after “also recorded” stand apart in the source; their conditions may differ.

On to `CC[C@H](C)[C@H](NC(=O)[C@H](CCC(=O)O)NC(=O)[C@H](CO)NC(=O)[C@@H](NC(=O)[C@@H](N)CO)C(C)C)C(=O)N[C@@H](CCC(N)=O)C(=O)N[C@@H](CC(C)C)C(=O)N[C@@H](CCSC)C(=O)N[C@@H](Cc1cnc[nH]1)C(=O)N[C@@H](CC(N)=O)C(=O)N[C@@H](CC(C)C)C(=O)NCC(=O)N[C@@H](CCCCN)C(=O)N[C@@H](Cc1cnc[nH]1)C(=O)N[C@@H](CC(C)C)C(=O)N[C@@H](CC(N)=O)C(=O)N[C@@H](CO)C(=O)N[C@@H](CCSC)C(=O)N[C@@H](CCC(=O)O)C(=O)N[C@@H](CCCN=C(N)N)C(=O)N[C@H](C(=O)N[C@@H](CCC(=O)O)C(=O)N[C@@H](Cc1c[nH]c2ccccc12)C(=O)N[C@@H](CC(C)C)C(=O)N[C@@H](CCCN=C(N)N)C(=O)N[C@@H](CCCCN)C(=O)N[C@@H](CCCCN)C(=O)N[C@@H](CC(C)C)C(=O)N[C@@H](CCC(N)=O)C(=O)N[C@@H](CC(=O)O)C(=O)N[C@H](C(=O)N[C@@H](Cc1cnc[nH]1)C(=O)N[C@@H](CC(N)=O)C(=O)N[C@@H](Cc1ccccc1)C(=O)O)C(C)C)C(C)C` [PTH, Teriparatide], for which the “CFU capabilities of bone marrow” value in data set [1] (PTH 400 mcg/kg/day x 7 days, euthanized on day 7, n=3 per cohort, compared to other groups) is given as “greatest preservation of CFU capabilities; also recorded: preserves CFU”. The “CFU-GM and CFU-M in bone marrow” value in data set [1] (daily PTH 400 mcg/kg vs saline, days 3 and 7) is recorded as “increased with PTH therapy”. Besides, the “bone marrow hematopoietic stem cell content, treatment vs control” value in data set [1] (daily PTH 400 mcg/kg, day 3) is “no statistical significance”. In data set [1] (daily PTH 400 mcg/kg, day 7), the “increase in bone marrow stem cell content” value is 5 fold. In data set [1] (daily PTH 400 mcg/kg, trend more pronounced on day 7), the “BFU and CFU-GEMM in bone marrow” value is recorded as “increased with PTH treatment”. The “time by which PTH levels were undetectable” value in data set [2] was not above 4 h. In addition, the Tmax in data set [2] (monkey, in vivo, sc, read-out: time of peak PTH levels after administration (converted)) was 30 min. The “CFU-GM and CFU-M in bone marrow aspirates” value in data set [3] (50 or 100 mcg/kg, 24 hours after first dose, more pronounced with higher dose) was “increases”. Besides, the “Erythroid, megakaryocyte lineages (BFU, CFU-GEMM) in bone marrow aspirate” value in data set [3] (50 or 100 mcg/kg, after first dose) is given as “increase”. In addition, the “bone marrow analysis, all lineages, by PTH dose” value in data set [3] (50 vs 100 mcg/kg) is “dose response”. Also, in data set [3] (24 hours after first dose), the “percent of CD34+ hematopoietic stem cells vs pre-treatment levels” value is given as “increases”. For the same compound, in the data set on rat, the “doses at which toxicity was observed” value is listed as “exceeding 75 mcg/kg”.
